Measurements as given in patent US11957684B2, “Treatment of heavy menstrual bleeding associated with uterine fibroids” (Sumitomo Pharma Switzerland GmbH, priority 2016, dated 2024).
Where “and” joins values, the source holds several entries; their conditions need not be identical. Equal values may be shown once.

How the values were obtained:
[1] = Example 4: pharmacodynamics (serum hormones, urine 6β-hydroxycortisol to cortisol ratio); type: in vivo, human; conditions: in vivo
Source text: (§1) Descriptive statistics were used to summarize pharmacodynamic parameters: serum concentrations of estradiol (E2), FSH, LH, progesterone, growth hormone (GH), prolactin (PRL), thyrotropin, adrenocorticotropic hormone (ACTH) and urine 6β-hydroxycortisol to cortisol ratios (Q).

[2] = system: estradiol (E2), FSH, LH, progesterone; assay: as above; type: in vivo, human; conditions: 10 mg to 40 mg QD
Source text: as §1

[3] = system: healthy premenopausal women; assay: Example 4: safety and tolerability; type: in vivo, human; conditions: single doses up to 80 mg, up to 40 mg QD for 14 days
Source text: The study was a phase 1, double-blind, randomized, placebo-controlled, sequential-panel, ascending single- and multiple-dose study in healthy premenopausal women. Ten groups, each of 12 healthy premenopausal, adult women, participated in the study (Cohorts 1 to 10).
Serum chemistry, hematology, urinalysis, vital signs, and ECGs were monitored during the study up to 1 week after the last dose. There were no meaningful changes in these parameters in the Compound 1 dose groups compared with placebo. QT and corrected QT interval (QTc) intervals >450 msec and […] were seen across all dose groups, including the placebo group.

[4] = Single dose (1 to 80 mg) and 14-day multiple dose (10 to 40 mg) PK of the Compound 1 formulation; type: in vivo; conditions: for half-life: read-out: mean plasma half-life (T1/2)
Source text: However, in a preferred embodiment, the pharmacokinetics of the Compound 1 formulation are not affected by food intake.
The mean plasma AUC after a single dose was higher after fasted dosing than after postprandial or preprandial dosing. The mean plasma AUC and mean Cmax with multiple dosing were higher with preprandial than with postprandial dosing.

[5] = Example 9 6-week phase 1 study with or without E2/NETA: pharmacokinetics; type: in vivo; conditions: female, human, plasma, 40 mg; for half-life: plasma Compound 1 t1/2, mean (SD); for Tmax: plasma Compound 1 tmax, median (min, max)
Source text: Methods: This was a 6-week phase 1, randomized, open-label, parallel-group, study conducted at 4 sites in the US. […] The first day of dosing occurred on Day 1 to 6 of the menstrual cycle. Hormonal preparations were prohibited for at least 3 months prior to screening. […] Vasomotor symptoms were captured using a daily diary (from screening until follow-up).

clinical = conditions: for half-life: human, in vivo
Source text: (See J. W. Ng, et al., “Dose-Dependent Suppression of Gonadotropins and Ovarian Hormones by Elagolix in Healthy Premenopausal Females” (poster, 2016); J. Grundy, et al., […] (2008), Vol 83: Supplement 1, S9).

FIG. 6C = assay: FIG. 6C
Procedure: Table printed on a drawing sheet, FIG. 6C
The patent's description of the figure: FIGS. 6A-C are tables of plasma PK parameters for Cohort 7 in accordance with Example 4.
First reader's note: Part of a plasma PK table series (FIGS. 6A-C) for Cohort 7; each column is a fed or fasted 40 mg arm.

FIG. 7B = assay: FIG. 7B
Source text: Table printed on a drawing sheet, FIG. 7B
The patent's description of the figure: FIGS. 7A-F are tables of plasma PK parameters for Cohorts 8 to 10 in accordance with Example 4.
First reader's note: Each column is a dose group; per the description these are Day 1 plasma PK values for Cohorts 8 to 10.

FIG. 11 = assay: FIG. 11
Source text: Table printed on a drawing sheet, FIG. 11
The patent's description of the figure: FIG. 11 is a table of plasma and urine PK parameters for Cohorts 8 to 10 on Days 1 and 14 of the treatment period in accordance with Example 4.
First reader's note: Each column is one dose cohort on one treatment day; the Min and Max rows give the range of the median Tmax, and 'nc' is not explained on the sheet.

[6] = system: women with uterine fibroids; conditions: in vivo
Source text: Secondary endpoints for safety included: Adverse events (AEs), vital signs, weight, standard 12-lead electrocardiogram (ECG), clinical laboratory tests, BMD, biochemical bone metabolism markers (serum N-telopeptide [NTELOP] and bone specific alkaline phosphatase [BAP])

[7] = human, plasma, po, Day 14 of multiple doses of 10 to 40 mg

For CONC(=O)Nc1ccc(-c2sc3c(c2CN(C)C)c(=O)n(-c2ccc(OC)nn2)c(=O)n3Cc2c(F)cccc2F)cc1 [Compound 1, N-(4-(1-(2,6-difluorobenzyl)-5-((dimethylamino)methyl)-3-(6-methoxy-3-pyridazinyl)-2,4-dioxo-1,2,3,4-tetrahydrothieno[2,3-d]pyrimidin-6-yl)phenyl)-N′-methoxyurea], the “effect on endogenous GH, PRL, thyrotropin, and ACTH” value [1] was “no apparent effect”, the “ovulation (post-ovulation progesterone increase)” value [2] was “prevented ovulation” and the safety and tolerability [3] was “safe and well tolerated”. It also gave a half-life ([4]; human, plasma, po, single dose 1 to 80 mg) of 7.1 to 19.8 h, a Tmax [4, 7] of 1 to 1.5 h and a half-life [4, 7] of 19.2 to 24.6 h. The “day by which steady state was reached” value ([4]; multiple dosing) was at most 7 days, the AUC(0-t) ([5]; Compound 1 AUC0-24, geometric mean (CV%), Week 6) was 116 ng·h/mL and the Cmax ([5]; Compound 1 Cmax, geometric mean (CV%), Week 6) was 17.6 ng/mL. It also gave an AUC(0-t) ([5]; plasma Compound 1 AUC0-24, mean (SD), Week 3) of 133 ng·h/mL, an AUC(0-t) ([5]; plasma Compound 1 AUC0-24, mean (SD), Week 6) of 125 ng·h/mL and a concentration at 3 week ([5]; plasma Compound 1 Cavg, mean (SD), Week 3) of 5.53 ng/mL. For the same compound, the concentration at 6 week ([5]; plasma Compound 1 Cavg, mean (SD), Week 6) was 5.2 ng/mL, the Cmax ([5]; plasma Compound 1 Cmax, mean (SD), Week 3) was 21.8 ng/mL and the Cmax ([5]; plasma Compound 1 Cmax, mean (SD), Week 6) was 19.5 ng/mL. It also gave a concentration at 3 week ([5]; plasma Compound 1 Ctrough, mean (SD), Week 3) of 2.57 ng/mL, a concentration at 6 week ([5]; plasma Compound 1 Ctrough, mean (SD), Week 6) of 2.45 ng/mL and a half-life ([5]; Week 3) of 16.7 h. The half-life ([5]; Week 6) was 17.1 h, the Tmax ([5]; Week 3) was 2.02 h and the Tmax ([5]; Week 6) was 2 h. The “E2 in the majority of subjects” value (clinical; 40 mg per day) was “below 10 pg/mL”, the half-life (clinical; T1/2, highest found) was about 61 h and the half-life (clinical; half-life (T1/2)) was 37 to 42 h. For the same compound, the “CL/F (L/hr) | Mean” value (FIG. 6C) was 739.7 L/h and 445.4 L/h, the “Vz/F (L) | Mean” value (FIG. 6C) was 17932.0 L and 11042.3 L and the “CL/F (L/hr) | Mean” value (FIG. 7B) was 959.7 L/h and 697.6 L/h. For the same compound, the “Tmax (hr) | Median” value (FIG. 7B) was 1.480 h and the “Tmax (hr) | Median” value (FIG. 11) was 1.00 h.

In the case of CCNC(=O)[C@@H]1CCCN1C(=O)[C@H](CCCNC(=N)N)NC(=O)[C@H](CC(C)C)NC(=O)[C@@H](CC(C)C)NC(=O)[C@H](Cc1ccc(O)cc1)NC(=O)[C@H](CO)NC(=O)[C@H](Cc1c[nH]c2ccccc12)NC(=O)[C@H](Cc1c[nH]cn1)NC(=O)[C@@H]1CCC(=O)N1 [leuprolide acetate, reference compound], the “AE leading to discontinuation: Abdominal pain” value [6] is reported as 1(0.7) n(%), the “AE leading to discontinuation: Arthralgia” value [6] is reported as 1(0.7) n(%) and the “AE leading to discontinuation: Back pain” value [6] is reported as 1(0.7) n(%). For the same compound, the “AE leading to discontinuation: Blood pressure increased” value [6] was 1(0.7) n(%), the “AE leading to discontinuation: Depression” value [6] was 0(0.0) n(%) and the “AE leading to discontinuation: Drug eruption” value [6] was 1(0.7) n(%). For the same compound, the “AE leading to discontinuation: Fatigue” value [6] was 0(0.0) n(%), the “AE leading to discontinuation: Headache” value [6] was 0(0.0) n(%) and the “AE leading to discontinuation: Hot flush” value [6] was 1(0.7) n(%). For the same compound, the “AE leading to discontinuation: Hypertension” value [6] was 1(0.7) n(%), the “AE leading to discontinuation: Liver function test abnormal” value [6] was 1(0.7) n(%) and the “AE leading to discontinuation: Liver function test increased” value [6] was 1(0.7) n(%). For the same compound, the “AE leading to discontinuation: Malaise” value [6] was 1(0.7) n(%), the “AE leading to discontinuation: Nausea” value [6] was 1(0.7) n(%) and the “AE leading to discontinuation: Pyrexia” value [6] was 1(0.7) n(%). The “AE leading to discontinuation: Tenosynovitis” value [6] was 0(0.0) n(%), the “AE leading to discontinuation: Tenosynovitis stenosans” value [6] was 0(0.0) n(%) and the “AE: Arthralgia” value [6] was 9(6.3) n(%). For the same compound, the “AE: Bone density decreased” value [6] was 8(5.6) n(%), the “AE: Bone resorption test abnormal” value [6] was 7(4.9) n(%) and the “AE: Dizziness” value [6] was 7(4.9) n(%). The “AE: Gamma-glutamyl transferase increased” value [6] was 9(6.3) n(%), the “AE: Genital haemorrhage” value [6] was 7(4.9) n(%) and the “AE: Headache” value [6] was 14(9.9) n(%). For the same compound, the “AE: Hot flush” value [6] was 75(52.8) n(%), the “AE: Hyperhidrosis” value [6] was 15(10.6) n(%) and the “AE: Malaise” value [6] was 5(3.5) n(%). The “AE: Menorrhagia” value [6] was 22(15.5) n(%), the “AE: Metrorrhagia” value [6] was 93(65.5) n(%) and the “AE: Resorption bone increased” value [6] was 8(5.6) n(%). The “AE: Somnolence” value [6] was 6(4.2) n(%), the “AE: Viral upper respiratory tract infection” value [6] was 46(32.4) n(%) and the “AEs Leading to Study Drug Discontinuation” value [6] was 7(4.9) n(%). For the same compound, the “ALP > 3 × ULN” value [6] was 0 (0.0) n (%), the “ALT > 3 × ULN” value [6] was 2 (1.4) n (%) and the “ALT > 5 × ULN” value [6] was 0 (0.0) n (%). For the same compound, the “ALT and AST > 3 × ULN” value [6] was 0 (0.0) n (%), the “ALT or AST > 3 × ULN with Tbili > 2 × ULN” value [6] was 0 (0.0) n (%) and the “AST > 3 × ULN” value [6] was 0 (0.0) n (%). The “AST > 5 × ULN” value [6] was 0 (0.0) n (%), the “Any Markedly Abnormal LFT” value [6] was 2 (1.4) n (%) and the “SAEs Leading to Study Drug Discontinuation” value [6] was 0(0.0) n(%). For the same compound, the “Serious Treatment-Emergent AEs” value [6] was 2(1.4) n(%), the “Serious Treatment-Emergent AEs, Not Related” value [6] was 2(1.4) n(%) and the “Serious Treatment-Emergent AEs, Related” value [6] was 0(0.0) n(%). The “Treatment-Emergent AEs” value [6] was 139(97.9) n(%), the “Treatment-Emergent AEs, Not Related” value [6] was 5(3.5) n(%) and the “Treatment-Emergent AEs, Related” value [6] was 134(94.4) n(%).
